Measured values taken from patent publication US20170105953A1, “METHOD FOR SUPPRESSING DIABETES AND/OR HEPATIC LIPIDS USING TORMENTIC ACID” (priority 2015, published 2017).

Assays:
Type in all cases: in vivo
[1] = test system: epididymal WAT and liver tissue; experiment: histopathology of epididymal WAT and liver tissue; conditions: HF diet-fed C57BL/6J mice, Rosi 0.01 g/kg/day oral gavage 4 weeks
Text: (§1) For part 2, C57BL/6J mice (4 weeks old) were obtained from the National Laboratory Animal Breeding and Research Center. The mice were divided randomly into two groups after 7 days acclimation. The control (CON) group (n=9) was fed a low-fat diet (diet 12450B, Research Diets, Inc., New Brunswick, N.J., USA), whereas the experimental group was fed a 45% high-fat diet (diet 12451, Research Diets, Inc.) for 12 weeks. The compositions of the experimental diets are given in previous studies. After 8 weeks, the high-fat treated mice were randomly subdivided into four groups (n=9) including PTA1 (0.06 g/kg/day), PTA2 (0.12 g/kg/day) or rosiglitazone (Rosi; 1% methylcellulose, 10 mg/kg body weight) (GlaxoSmithKline) or vehicle and treated by oral gavage one time per day from the 9th to 12th weeks, while the mice were still on the high-fat diet, whereas the CON and high-fat control (HF) mice were treated with vehicle only. At the end, food was withheld from the animals (from 10 p.m. to 10 a.m.). The next day, the mice were sacrificed for blood and tissue collection and analysis. Livers, skeletal muscles, and white adipose tissues (WATs) (including epididymal, mesenteric, and retroperitoneal WAT) were weighed and excised, followed by immediate freezing, and kept at −80° C. for target gene analysis. Heparin (30 units/mL) (Sigma) was added to blood samples. Plasma samples were collected within 30 min by centrifugation at 1600 g for 15 min at 4° C. Plasma was obtained for insulin and leptin assay.
Small pieces of epididymal WAT and liver tissue were fixed with formalin (200 g/kg) neutral buffered solution and embedded in paraffin. Sections (8 μm) were cut and stained with hematoxylin and eosin. For microscopic examination, a microscope (Leica, DM2500) was used, and the images were taken using a Leica Digital camera (DFC-425-C).

[2] = hepatic lipids in high-fat diet-fed mice; conditions: HF diet-fed C57BL/6J mice, Rosi 0.01 g/kg/day oral gavage 4 weeks; mean ± SE, n=9
Text: as §1
Hepatic lipids were extracted using a previously described protocol. For the hepatic lipid extraction, 0.375 g liver samples were homogenized with 1 mL of distilled water for 5 min. Finally, the dried pellet was resuspended in 0.5 mL of ethanol and analyzed using a triglycerides kit as used for serum lipids.

[3] = blood parameters in high-fat diet-fed mice; conditions: HF diet-fed C57BL/6J mice, Rosi 0.01 g/kg/day oral gavage 4 weeks
Description: as §1, with “The control (CON) group (n=9) was fed a low-fat diet (diet 12450B, Research Diets, Inc., New Brunswick, N.J., USA), whereas the experimental group was fed a 45% high-fat diet (diet 12451, Research Diets, Inc.) for 12 weeks.” left out
Blood samples (0.8 mL) were collected from the retro-orbital sinus of fasted mice, and the glucose level was analyzed by the glucose oxidase method (model 1500; Sidekick Glucose Analyzer; YSI Inc., Yellow Springs, Ohio, USA). Plasma triglycerides (TG), total cholesterol (TC), and free fatty acids (FFA) were measured using commercial assay kits according to the manufacturer's directions (Triglycerides-E test, Cholesterol-E test, and FFA-C test, Wako Pure Chemical, Osaka, Japan). The levels of insulin and leptin in blood were analyzed by ELISA using a commercial assay kit according to the manufacturer's directions (mouse insulin ELISA kit, Sibayagi, Gunma, Japan; and mouse leptin ELISA kit, Morinaga, Yokohama, Japan).

CN(CCOc1ccc(CC2SC(=O)NC2=O)cc1)c1ccccn1 (stereo not drawn) [Rosi, rosiglitazone, reference compound]
average area of adipocytes (epididymal WAT) [1]: 4574.4±162.7 μm^2
hepatocellular ballooning mean score ([1]; grade 0 none, 1 a few cells, 2 many cells): 0.9±0.2
Liver lipids: Total lipid [2]: 74.7 ± 5.7 mg/g
Liver lipids: Triacylglycerol [2]: 43.8 ± 4.7 µmol/g
blood glucose ([3]; week 12): 89.7 mg/dL
Blood profiles: FFA (plasma free fatty acid) ([3]; mean ± SE, n=9): 1.85 ± 0.28 mequiv/L
Blood profiles: Insulin ([3]; mean ± SE, n=9): 56.4 ± 13.8 μU/mL
Blood profiles: Leptin ([3]; mean ± SE, n=9): 2.15 ± 0.099 ng/mL
Blood profiles: TC (total cholesterol) ([3]; mean ± SE, n=9): 140.7 ± 14.1 mg/dL
